Assay results reported in US8530512B2, “Broad spectrum gram-positive antimicrobials and anthelmintics with efficacy against drug-resistant strains and Mycobacterium species” (priority 2004, dated 2013).
In brackets after ≈: the same amount, converted by molar mass. Read-outs that look alike come from different tables or passages of the source.

Key:
Corynebacterium xerosis = assay: microbe, parasite or virus in culture; format: cell-based
[1] = tested on: Streptococcus pneumoniae ATCC 49619; assay: microbe, parasite or virus in culture; format: cell-based; conditions: ATCC49619
[2] = tested on: methicillin-resistant Staphylococcus aureus; assay: microbe, parasite or virus in culture; format: cell-based
Escherichia coli = assay: microbe, parasite or virus in culture; format: cell-based
[3] = tested on: Corynebacterium pseudodiphthericum; assay: microbe, parasite or virus in culture; format: cell-based; conditions: Corynebacterium pseudodiphtheriticum
[4] = tested on: several strains of bacteria; assay: Kirby-Bauer disc diffusion assay; format: cell-based; conditions: bioassay-directed fractionation
Method: The crude extract was then fractionated by flash column chromatography, using a 42 mm ID column, silica gel 60 as the stationary phase, and CH2Cl2 as the eluting solvent. Typically, 100-150, 10 mL fractions were collected and assayed for microbial growth inhibition. […] The column fractions, including the active component, were also analyzed by thin-layer chromatography (TLC) using Baker-flex® silica gel IB2-F plates (with fluorescent indicator) and CH2Cl2 as the eluting solvent (see FIG. 1).

[5] = tested on: Enterococcus faecalis ATCC 29212; assay: microbe, parasite or virus in culture; format: cell-based; conditions: Enterococcus faecalis, ATCC29212
M. smegmatis = assay: MIC assay; format: cell-based; conditions: for MIC: Mycolicibacterium smegmatis, read-out: MIC M. smegmatis
[6] = tested on: Staphylococcus aureus ATCC 25923; assay: microbe, parasite or virus in culture; format: cell-based; conditions: ATCC25923
Listeria monocytogenes = assay: microbe, parasite or virus in culture; format: cell-based
Streptococcus mitis = assay: microbe, parasite or virus in culture; format: cell-based
Bacillus cereus = assay: microbe, parasite or virus in culture; format: cell-based; conditions: for MIC: Bacillus cereus
Pseudomonas aeruginosa = assay: microbe, parasite or virus in culture; format: cell-based
[7] = tested on: Enterococcus faecium VRE 1; assay: microbe, parasite or virus in culture; format: cell-based
[8] = tested on: vancomycin-resistant enterococci; assay: organism not typed; format: cell-based
Streptococcus pyogenes = assay: microbe, parasite or virus in culture; format: cell-based
Mycobacterium chelonae = assay: MIC assay; format: cell-based; conditions: Table 6; read-out: MIC M. chelonae
[9] = tested on: Staphylococcus aureus MRSA MC-1; assay: microbe, parasite or virus in culture; format: cell-based; conditions: Staphylococcus aureus, MRSA
Bacillus subtilis = assay: microbe, parasite or virus in culture; format: cell-based
Bacillus megaterium = assay: microbe, parasite or virus in culture; format: cell-based; conditions: Priestia megaterium
Mycobacterium bovis BCG = assay: microbe, parasite or virus in culture; format: cell-based; conditions: Mycobacterium tuberculosis variant bovis BCG
C. elegans L1 larvae = assay: developmental assay; format: in vivo; set-up: key to Developmental score, 1/1600 / Developmental score, 1/800 / Developmental score, 1/400 / Developmental score, 1/200 / Developmental score, 1/100: dead (+++); distressed (++); slightly delayed (+); the same as M9-only untreated wells (−); conditions: after four days, Ive 1 ng/μL in each well; for Developmental score, 1/100: dilution 1/100; for Developmental score, 1/200: dilution 1/200; for Developmental score, 1/400: dilution 1/400; for Developmental score, 1/800: dilution 1/800; for Developmental score, 1/1600: dilution 1/1600
Bacillus anthracis = assay: microbe, parasite or virus in culture; format: cell-based
[10] = tested on: Corynebacterium diphtheriae Tox−; assay: microbe, parasite or virus in culture; format: cell-based
[11] = tested on: Enterococcus faecium VRE 14; assay: microbe, parasite or virus in culture; format: cell-based
Streptococcus agalactiae = assay: microbe, parasite or virus in culture; format: cell-based
[12] = tested on: Staphylococcus aureus ATCC 29213; assay: microbe, parasite or virus in culture; format: cell-based; conditions: Staphylococcus aureus, ATCC29213
[13] = tested on: Gram-positive bacteria tested; assay: organism not typed; format: cell-based
Mycobacterium fortuitum = assay: MIC assay; format: cell-based; conditions: Mycolicibacterium fortuitum; Table 6; read-out: MIC M. fortuitum
C. elegans = assay: motility assay; format: in vivo; set-up: key to Movement score, 1/1600 / Movement score, 1/800 / Movement score, 1/400 / Movement score, 1/200 / Movement score, 1/100: normal (−); slow (+); very slow (++); not motile/paralyzed (+++); conditions: for Movement score, 1/100: dilution 1/100 of stock (10.24 μg/μL; SK-03-92 1.024 μg/μL); for Movement score, 1/100 / Movement score, 1/200 / Movement score, 1/400 / Movement score, 1/800 / Movement score, 1/1600: Ive 1 ng/μL in all wells; for Movement score, 1/200: dilution 1/200 of stock (10.24 μg/μL; SK-03-92 1.024 μg/μL); for Movement score, 1/400: dilution 1/400 of stock (10.24 μg/μL; SK-03-92 1.024 μg/μL); for Movement score, 1/800: dilution 1/800 of stock (10.24 μg/μL; SK-03-92 1.024 μg/μL); for Movement score, 1/1600: dilution 1/1600 of stock (10.24 μg/μL; SK-03-92 1.024 μg/μL), overnight 20° C.
[14] = tested on: Staphylococcus aureus MRSA MC-4; assay: microbe, parasite or virus in culture; format: cell-based
[15] = tested on: Gram-negative bacteria tested; assay: organism not typed; format: cell-based; conditions: read-out: MICs
[16] = tested on: Mycobacterium intracellulare; assay: MIC assay; format: cell-based; conditions: Mycobacterium intracellulare; Table 6; read-out: MIC M. intracellulare
Mycobacterium avium = assay: MIC assay; format: cell-based; conditions: Mycobacterium avium; Table 6; read-out: MIC M. avium
M. kansasii = assay: MIC assay; format: cell-based; conditions: Mycobacterium kansasii; Table 6; read-out: MIC M. kansasii
[17] = Table 6, read-out: MIC S. aureus ATCC 29213

## COc1cc(O)cc(/C=C/c2ccccc2)c1 [CL-3, 3-hydroxy-5-methoxystilbene]
Corynebacterium xerosis
  MIC: 16 µg/mL (≈ 70.7 µM)
[1]
  MIC: 8 µg/mL (≈ 35.4 µM)
[2]
  MIC: 32 µg/mL (≈ 141 µM)
Escherichia coli
  MIC: > 128 µg/mL
[3]
  MIC: 16 µg/mL (≈ 70.7 µM)
[4]
  growth inhibition: inhibited the growth
[5]
  MIC: 16 µg/mL (≈ 70.7 µM)
M. smegmatis; Table 6
  MIC: 64 µg/mL (≈ 283 µM)
[6]
  MIC: 32 µg/mL (≈ 141 µM)
Listeria monocytogenes
  MIC: 32 µg/mL (≈ 141 µM)
Streptococcus mitis
  MIC: 64 µg/mL (≈ 283 µM)
Bacillus cereus
  MIC: 16 µg/mL (≈ 70.7 µM)
Bacillus cereus; Table 3
  MIC B. cereus, G+ (anthrax surrogate): 16 µg/mL (≈ 70.7 µM)
Pseudomonas aeruginosa
  MIC: > 128 µg/mL
[7]; Enterococcus faecium, VRE
  MIC: 16 µg/mL (≈ 70.7 µM)
[7]; Table 3
  MIC E. faecium VRE 1, G+: 32 µg/mL (≈ 141 µM)
[8]
  MIC: 32 µg/mL (≈ 141 µM)
Streptococcus pyogenes; Streptococcus pyogenes
  MIC: 16 µg/mL (≈ 70.7 µM)
Streptococcus pyogenes; Table 3
  MIC S. pyogenes, G+: 16 µg/mL (≈ 70.7 µM)
Mycobacterium chelonae
  MIC: 16 µg/mL (≈ 70.7 µM)
[9]
  MIC: 32 µg/mL (≈ 141 µM)
[9]; read-out: MIC S. aureus MC-1
  MIC: 16 µg/mL (≈ 70.7 µM)
Bacillus subtilis
  MIC: 16 µg/mL (≈ 70.7 µM)
Bacillus megaterium
  MIC: 64 µg/mL (≈ 283 µM)
Mycobacterium bovis BCG; M bovis BCG, Example 3
  MIC: 25.6 µg/mL (≈ 113 µM)
Mycobacterium bovis BCG; Table 2, Mycobacterium bovis BCG
  MIC: 26 µg/mL (≈ 115 µM)
C. elegans L1 larvae
  Developmental score, 1/100: +++
  Developmental score, 1/200: +
  Developmental score, 1/400: −
  Developmental score, 1/800: −
  Developmental score, 1/1600: −
Bacillus anthracis
  MIC: 4 µg/mL (≈ 17.7 µM)
[10]
  MIC: 32 µg/mL (≈ 141 µM)
[11]
  MIC: 16 µg/mL (≈ 70.7 µM)
Streptococcus agalactiae
  MIC: 32 µg/mL (≈ 141 µM)
[12]
  MIC: 32 µg/mL (≈ 141 µM)
[12]; [17]
  MIC: 16 µg/mL (≈ 70.7 µM)
[13]
  growth inhibition of Gram-positive bacteria: inhibit the growth of all Gram-positive bacteria tested
Mycobacterium fortuitum
  MIC: 16 µg/mL (≈ 70.7 µM)
C. elegans
  Movement score, 1/100: +++
  Movement score, 1/200: +++
  Movement score, 1/400: +
  Movement score, 1/800: −
  Movement score, 1/1600: −
[14]
  MIC: 32 µg/mL (≈ 141 µM)
[15]
  MIC: > 128 µg/mL

## COc1cc(O)cc(/C=C/Oc2ccc3ccccc3c2)c1 [SK-04-23]
[16]
  MIC: 64 µg/mL (≈ 219 µM)
M. smegmatis; per-compound listing, Example 6
  MIC: 128 µg/mL (≈ 438 µM)
M. smegmatis; Table 6
  MIC M. smegmatis: 128 µg/mL (≈ 438 µM)
Bacillus cereus; per-compound listing, Example 6, read-out: MIC B. cereus
  MIC: 8 µg/mL (≈ 27.4 µM)
Mycobacterium avium
  MIC: 64 µg/mL (≈ 219 µM)
Mycobacterium chelonae
  MIC: 128 µg/mL (≈ 438 µM)
[9]; read-out: MIC MRSA
  MIC: 8 µg/mL (≈ 27.4 µM)
[9]; read-out: MIC S. aureus MC-1
  MIC: 8 µg/mL (≈ 27.4 µM)
C. elegans L1 larvae
  Developmental score, 1/100: +++
  Developmental score, 1/200: +++
  Developmental score, 1/400: +
  Developmental score, 1/800: −
  Developmental score, 1/1600: −
M. kansasii
  MIC: 64 µg/mL (≈ 219 µM)
[12]; [17]
  MIC: 8 µg/mL (≈ 27.4 µM)
[12]; per-compound listing, Example 6, read-out: MIC S. aureus
  MIC: 16 µg/mL (≈ 54.7 µM)
Mycobacterium fortuitum
  MIC: 128 µg/mL (≈ 438 µM)
C. elegans
  Movement score, 1/100: ++
  Movement score, 1/200: ++
  Movement score, 1/400: ++
  Movement score, 1/800: ++
  Movement score, 1/1600: +
C. elegans; lowest concentrations tested, at least triplicate
  effect on worms at the lowest concentrations tested: reduced motility, paralysis, or death
